Structure (SMILES)	melting point [°C]
COC(=O)c1cscc1NC(=O)COc1ccc(-c2ccccc2Cl)cn1	151 to 155
C[C@@H](Nc1ncnc2cc(F)c([N+](=O)[O-])cc12)c1ccccc1	203
Cc1[nH]c2ccc(/C=C/C(=O)OCc3ccccc3)cc2c1CN(C)C	174 to 177
Nc1ncnc2sc(Cc3cccnc3)c(-c3ccc(NC(=O)Nc4cccc(Cl)c4)cc3)c12	169 to 172
COc1ccc(/C=C/c2cc(/C=C/c3ccc4cc[nH]c4c3)[nH]n2)c(OC)c1	121 to 133
CCN(CC)CCNC(=O)COc1cccc(-n2nc(-c3ccc(F)cc3)c3cccnc32)c1	137 to 138
CCN1CCC2(c3cccc(OC)c3)Cc3[nH]c(C(=O)Nc4ccccc4)c(C)c3CC2C1 (configuration not stated)	178 to 180
O=C(Nc1nc(-c2ccc([N+](=O)[O-])cc2)cs1)OCC(Cl)(Cl)Cl	207 to 209
c1nc2c(cc1NC1=NCCN1)COCC2	201 to 202
COc1ccc(-c2nc(Cn3ccnn3)cs2)cc1	89 to 94
COc1ccc(-c2ccncc2)c(C)n1	85 to 90
COc1ccc(C(=O)O)c(OCCN2CCC(c3cn(Cc4ccoc4)c4ncccc34)CC2)c1	91.5 to 93.2
N#Cc1cnc2cc3c(cc2c1Nc1ccc(F)c(Cl)c1)NCCO3	244 to 245
CC(C)Oc1ccc2c(Cl)nc(C(=O)NCCO)c(O)c2c1	155 to 156
CN(C(=O)CNc1nc(-c2ccccc2)ncc1N)c1ccccc1	183 to 184
COc1ccc(-c2ccc3c(c2)C(=O)NC3=O)c2c1OCCO2	285 to 287
CC(=O)NCCOc1ccc(-c2ccc(=O)n(Cc3ccc(Cl)cc3F)c2)cc1	153
CN1C(=O)Cc2cc(C3=NNC(=O)C4CCC34)ccc21 (configuration not stated)	256 to 259
CON=C(C)C(=NOCc1ccccc1)C(=O)O	88 to 89
CCCN(CCC12CC3CC(CC(C3)C1)C2)C(=O)NCCCc1ccncc1	99 to 103
Nc1ncc(-c2cccc(Cl)c2Cl)c(Cl)n1	228 to 230
CCOC(=O)c1ncn2c1[C@@H]1CCN1C(=O)c1c-2cccc1C(F)(F)F	183 to 184
CCc1ccc(Cc2cn(C3OC(COC(=O)c4ccccc4)C(F)C(OC(=O)c4ccccc4)C3OC(=O)c3ccccc3)c3cccc(Cl)c23)cc1 (configuration not stated)	137 to 138
O=C1OC(=O)C(c2ccc(Cl)cc2)=C1Cl	110 to 112
COc1cc2ncnc(N3CCN(C(=O)Nc4ccc(N5CCOCC5)cc4)CC3)c2cc1OC	254 to 256
O=C(c1ccc(I)cc1)c1cc2c3c(c1)c(-c1cccc(Cl)c1)cc(=O)n3CC2	202

Structure (SMILES)	melting point [°C]
COc1cccc(P(=O)(c2ccccc2)c2ccccc2)c1I	186 to 189
CCc1c(C(=O)C(N)=O)c2c(NCC(=O)O)cccc2n1Cc1ccccc1	151 to 157
Cc1noc(NS(=O)(=O)c2ccc(-c3ccccn3)s2)c1Br	186 to 188
CC(=O)Nc1ccc(OCC(O)CN2CCC(N3CCCNC3=O)CC2)cc1 (configuration not stated)	218 to 221
COc1ccc(C2(C=O)C=CC=CC2)cc1OCCCN1CCC(c2noc3cc(F)ccc23)CC1 (configuration not stated)	140 to 141
Cc1nnc2cc(C(=O)O)cc(Cl)n12	259 to 260
Cc1nc(C)c(-c2ccnc(Nc3ccc(N4CCOCC4)c(C)c3)n2)s1	164 to 166
NC(=Nc1ccc(N2CCNCC2)cc1)c1cccs1	180
CCNc1nc2c(N)nc3ccccc3c2n1CC(C)(C)O	233 to 235
C=C(C)C(=O)NCCCCCCCCCCCC(=O)O	70.8 to 72.4
CCc1n[nH]c(CC)c1Oc1cccc(C#N)c1	81 to 84
Cc1c(C)c2c(c(C)c1N)CC(C)(CNCCN1CCCCC1)O2 (configuration not stated)	102 to 104
CC1(C)CCCC(C)(C)N1Cc1ccc2cc(NC(=O)c3ccc(-c4ccc(Cl)cc4)nc3)ccc2n1	258 to 259
COc1ccc(C2=NN(Cc3cccc(C(=O)O)c3)C(=O)[C@H]3CCCC[C@@H]23)cc1OC (relative stereo)	133 to 136
CCC(C(=O)N(C)C)n1cc(C(C)C)c(-c2ccccc2)n1 (configuration not stated)	89 to 90
COc1c(NC(=O)c2ccc(Br)cc2)cccc1[N+](=O)[O-]	162 to 163
CC(C)S(=O)(=O)Oc1cn(C)c2cc(F)ccc2c1=O	130 to 133
N#Cc1ccc(-c2nc(COc3ccc(CCCn4ccnc4)cc3)co2)cc1	98 to 99
CCOC(=O)C1=C[C@@H](OC(CC)CC)[C@@H](NC(C)=O)[C@H](N=[N+]=[N-])[C@@H]1O	112 to 115
OCC(O)(Cc1ccc(Cl)cc1Cl)c1cccnc1 (configuration not stated)	158 to 159
O=C(NCCc1ccc(O)c(O)c1)C1CC1	174 to 176
OCC1(CO)CC=CC1	168 to 170
CC(=O)Nc1ccc(-n2c(N)nc3ccccc32)cc1	246 to 248
c1ccc2c(c1)CCCC2N1CCCNCC1 (configuration not stated)	107 to 109
CCOC(=O)C(=O)c1ccc(-c2ccc(-c3ccccc3)cc2)o1	91 to 94
CC12CCCC(C1)OC2=O (configuration not stated)	37 to 38

Structure (SMILES)	melting point [°C]
O=C(O)COc1cccc2c1CCC(Cc1c[nH]c(C(c3ccccc3)c3ccccc3)n1)C2 (configuration not stated)	170
CNC1=NS(=O)(=O)N=C1NCCSCc1cnc(CN(C)C)s1	170 to 172
COP1(=O)C=Cc2ccccc21 (configuration not stated)	89 to 90
COC(=O)c1cccc2cc(C)n(Cc3ccc(-c4ccccc4-c4nnn[nH]4)cc3)c12	180 to 182
O=[N+]([O-])c1cc(Br)cc(O)c1O	102 to 105
Cc1cc(NCCNC(=O)CCc2cc(C(C)(C)C)c(O)c(C(C)(C)C)c2)nc(Cl)c1C#N	162 to 165
O=C1NCC(CCN2CCN(c3ccccc3F)CC2)O1 (configuration not stated)	121 to 124
O=C(N[C@H]1CC[C@H](CCN2CCC(c3cccc4c3CCO4)CC2)CC1)c1ccc(-n2cccn2)cc1	258
Cc1nc2c(OCc3ccccc3)cc(C(=O)N(C)C)cc2n1C	159 to 160
Cc1ccc(C=CC(=O)NCCCCN2CCN(C(c3ccccc3)c3ccccc3)CC2)cn1	129 to 131
O=C1Nc2ccc(-c3cccc(Cl)c3)cc2C12OCCCO2	242 to 244
O=C(Nc1cccnc1NCc1ccc(Cl)cc1)c1ccccc1Cl	117 to 119
CCCC1(CC(=O)OC)CCCc2c1[nH]c1cc(Br)ccc21 (configuration not stated)	198
N#Cc1ccc(-c2cc(F)c(F)c(OC3SCC(O)C(O)C3O)c2)cn1 (configuration not stated)	173
Cc1c(-c2ccc(OCc3ccccc3)cc2)n(Cc2ccc(OCCN3[C@H](C)CCC[C@@H]3C)cc2)c2ccc(OCc3ccccc3)cc12	106 to 107
COc1ccc(CCC(O)=S)cc1[N+](=O)[O-]	130 to 132
Cc1cc(OCC(=O)O)cc(C)c1SCc1sc(-c2ccc(C(F)(F)F)cc2)nc1C	184 to 185
COc1cc2c(cc1Cl)CCNC[C@H]2c1ccccc1	81 to 82
O=[N+]([O-])c1ccc(-c2cccs2)cc1	124 to 126
O=C(/C=C/C=C(c1ccc(F)cc1)c1ccc(F)cc1)Oc1ccc([N+](=O)[O-])cc1	112 to 114
COc1ccc2c(c1)C(=O)CC1C2CCC2(C)C(O[Si](C)(C)C(C)(C)C)CCC12 (configuration not stated)	159 to 160
CC#Cc1cn(C2OC(CO)C(O)C2O)c(=O)nc1N (configuration not stated)	241 to 243
CCCCN1CCSC1S(=O)(=O)N=NC(=O)Nc1nc(OC)cc(OC)n1 (configuration not stated)	139 to 140
CSc1nc(O)cc(-c2cccc(C#N)c2)n1	> 220
CCCCCCc1cc(SC)ccc1O	42 to 44
N#Cc1ccc(-c2cc(-c3ccc(O)c(F)c3)nc3ccc(O)cc23)cc1	266 to 267

Structure (SMILES)	melting point [°C]
O=C(CC(CC1CCCCC1)C(=O)O)c1ccco1 (configuration not stated)	91 to 94
CCCCN(CCCC)c1ccc(C=C(S(C)(=O)=O)S(C)(=O)=O)cc1	114 to 115
CCCC(O)c1cc2c(=O)n(NS(C)(=O)=O)c(=O)[nH]c2cc1C(F)(F)F (configuration not stated)	223 to 226
C[N+]([O-])=CCC=Cc1ccccc1	85 to 86
CS(=O)(=O)c1ccc(-c2cccn2-c2ccccc2)cc1	140 to 142
CN1C(=O)C(NC(=O)Nc2cccc([N+](=O)[O-])c2)N=C(c2ccccc2)c2ccccc21 (configuration not stated)	288 to 289
COc1ccc2nccc(NC(=O)N3CCN(CCc4ccc5c(c4)NC(=O)CS5)CC3)c2n1	248 to 250
O=C(c1ccc(-c2ccc(O)cc2)cc1)C1CC=CC1	153 to 155
COc1ccc(-c2nc(C)c(C(=O)OCC[Si](C)(C)C)s2)cc1	80 to 82
Cc1nc(NC(=O)N(C)C)nc(C)c1Cl	127 to 129
O=C(O)CCCCc1cccc(-c2nc(=O)c3ccccc3s2)n1	162
CC(=C1SCCCS1)c1cccc(O)c1	63 to 64
Cc1ncsc1C(=O)Nc1ccc(-n2nc(C(F)(F)F)cc2C2CC2)c(F)c1	95 to 97.6
COc1c(S(=O)C(F)(F)F)c(C#N)nn1-c1c(Cl)cc(C(F)(F)F)cc1Cl (configuration not stated)	136 to 137
CNC(C(N)=O)c1cn(C2CCc3c(F)cc(F)cc3C2)c(=S)[nH]1 (configuration not stated)	212 to 213
O=C(c1ccc(Cl)cc1)c1ccc(CBr)cc1Cl	88 to 90
CC(C)c1cc(-c2ccccc2)nc(-c2ccc(F)cc2)c1CO	172 to 174
COc1ccc(CC(NC(=O)CNC(=O)OCc2ccccc2)C(=O)NC2C(C(=O)O)OC(n3cnc4c(NC(=O)c5ccccc5)ncnc43)C2O)cc1 (configuration not stated)	78 to 84
COc1cc2[nH]nc(C(=O)NN=Cc3ccc([N+](=O)[O-])o3)c2cc1OC	334
COc1ccc(/C=C/C(=O)C2C(=O)CC(c3ccc(OC)cc3)C([N+](=O)[O-])C2c2cccs2)cc1 (configuration not stated)	160 to 162
CCSc1cccc(OC(F)(F)F)c1S(N)(=O)=O	146
Cn1nc(Br)c([N+](=O)[O-])c1Br	154
CN1Cc2c(-c3nnc(CCl)o3)ncn2-c2ccccc2C1=O	221 to 222
CNc1nc(N)nc(N)n1	269

From a melting point compilation (Tetko et al.; mined from patent text by program, amines drawn as free bases though some values may be those of a salt)
